Data as given in ChEMBL document CHEMBL6109067, “Isolation, synthesis and structure-activity relationships of gallotannin derivatives as cathepsin C inhibitor” (Bioorg Med Chem Lett, 2025).

Assays:
Dipeptidyl peptidase 1 = Dipeptidyl peptidase 1 (Homo sapiens, UniProt P53634); experiment: Inhibition of Cathepsin C (unknown origin)
Procathepsin L = Procathepsin L (Homo sapiens, UniProt P07711); experiment: Inhibition of Cathepsin L (unknown origin)
Cathepsin S = Cathepsin S (Homo sapiens, UniProt P25774); experiment: Inhibition of Cathepsin S (unknown origin)
Cathepsin K = target: T1, Cathepsin K (Homo sapiens, UniProt P43235); experiment: Inhibition of Cathepsin K (unknown origin)
T1 sequence (P43235 whole entry): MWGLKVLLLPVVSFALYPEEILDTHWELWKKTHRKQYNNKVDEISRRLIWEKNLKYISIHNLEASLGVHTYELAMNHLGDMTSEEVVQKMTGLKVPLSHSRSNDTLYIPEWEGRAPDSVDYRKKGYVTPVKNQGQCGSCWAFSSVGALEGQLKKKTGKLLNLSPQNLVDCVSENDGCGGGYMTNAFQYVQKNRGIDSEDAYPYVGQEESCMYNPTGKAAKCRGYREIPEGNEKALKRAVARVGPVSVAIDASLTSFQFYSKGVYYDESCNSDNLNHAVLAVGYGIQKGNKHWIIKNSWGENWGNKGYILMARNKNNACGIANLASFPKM

Sequence of Procathepsin L (P07711 whole entry): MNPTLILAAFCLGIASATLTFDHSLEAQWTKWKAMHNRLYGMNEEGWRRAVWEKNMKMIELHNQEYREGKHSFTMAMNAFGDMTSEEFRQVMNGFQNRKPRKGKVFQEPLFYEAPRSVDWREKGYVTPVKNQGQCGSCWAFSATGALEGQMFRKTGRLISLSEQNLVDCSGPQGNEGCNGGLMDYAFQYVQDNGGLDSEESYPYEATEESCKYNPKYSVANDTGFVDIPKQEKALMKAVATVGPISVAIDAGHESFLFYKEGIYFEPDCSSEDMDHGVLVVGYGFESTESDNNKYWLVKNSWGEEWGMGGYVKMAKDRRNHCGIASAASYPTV
Sequence of Cathepsin S (P25774 whole entry): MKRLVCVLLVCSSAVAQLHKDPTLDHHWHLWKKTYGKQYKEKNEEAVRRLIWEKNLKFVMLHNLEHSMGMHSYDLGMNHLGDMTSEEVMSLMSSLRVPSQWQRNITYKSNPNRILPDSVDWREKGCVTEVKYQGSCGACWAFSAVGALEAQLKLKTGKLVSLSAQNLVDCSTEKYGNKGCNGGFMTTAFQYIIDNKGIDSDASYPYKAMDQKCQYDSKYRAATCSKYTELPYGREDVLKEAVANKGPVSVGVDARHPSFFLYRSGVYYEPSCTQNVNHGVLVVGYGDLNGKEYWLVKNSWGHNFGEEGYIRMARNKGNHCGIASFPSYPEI
Sequence of Dipeptidyl peptidase 1 (P53634 25-134 limits assumed): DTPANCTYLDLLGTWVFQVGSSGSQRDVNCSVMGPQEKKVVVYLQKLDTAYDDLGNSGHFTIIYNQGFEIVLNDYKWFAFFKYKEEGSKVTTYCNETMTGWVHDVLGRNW
Sequence of Dipeptidyl peptidase 1 (P53634 231-394 limits assumed): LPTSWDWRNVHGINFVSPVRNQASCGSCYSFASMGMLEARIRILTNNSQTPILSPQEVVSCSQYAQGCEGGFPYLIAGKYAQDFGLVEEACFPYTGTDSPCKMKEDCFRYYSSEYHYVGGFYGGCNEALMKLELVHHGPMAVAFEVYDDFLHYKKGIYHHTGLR
Sequence of Dipeptidyl peptidase 1 (P53634 395-463 limits assumed): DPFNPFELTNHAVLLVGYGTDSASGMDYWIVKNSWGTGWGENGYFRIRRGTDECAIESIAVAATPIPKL

| Compound | IC50 (Procathepsin L) [nM] | IC50 (Cathepsin S) [nM] | IC50 (Cathepsin K) [nM] | pIC50 (Dipeptidyl peptidase 1) | IC50 (Dipeptidyl peptidase 1) [nM] |
| --- | --- | --- | --- | --- | --- |
| O=C(OC[C@H]1O[C@@H](OC(=O)c2cc(O)c(O)c(O)c2)[C@H](OC(=O)c2cc(O)c(O)c(O)c2)[C@@H](OC(=O)c2cc(O)c(O)c(O)c2)[C@@H]1OC(=O)c1cc(O)c(O)c(O)c1)c1cc(O)c(O)c(O)c1 [PENTAGALLOYL GLUCOSE] | – | – | – | – | 695 |
| O=C(OC[C@H]1O[C@@H](OC(=O)c2cc(O)c(O)c(O)c2)[C@H](OC(=O)c2cc(O)c(O)c(O)c2)[C@@H](OC(=O)c2cc(O)c(O)c(O)c2)[C@H]1OC(=O)c1cc(O)c(O)c(O)c1)c1cc(O)c(O)c(O)c1 | – | – | – | – | 735 |
| O=C(OC[C@H]1O[C@H](OC(=O)c2cc(O)c(O)c(O)c2)[C@H](OC(=O)c2cc(O)c(O)c(O)c2)[C@@H](OC(=O)c2cc(O)c(O)c(O)c2)[C@@H]1OC(=O)c1cc(O)c(O)c(O)c1)c1cc(O)c(O)c(O)c1 | – | – | – | – | 1990 |
| O=C(OC[C@H]1O[C@H](OC(=O)c2cc(O)c(O)c(O)c2)[C@H](OC(=O)c2cc(O)c(O)c(O)c2)[C@@H](OC(=O)c2cc(O)c(O)c(O)c2)[C@H]1OC(=O)c1cc(O)c(O)c(O)c1)c1cc(O)c(O)c(O)c1 | – | – | – | – | 2520 |

Second part, led by results:

| IC50 (Procathepsin L) [nM] | IC50 (Cathepsin S) [nM] | IC50 (Cathepsin K) [nM] | pIC50 (Dipeptidyl peptidase 1) | Compound | IC50 (Dipeptidyl peptidase 1) [nM] |
| --- | --- | --- | --- | --- | --- |
| 7.49 | 3.58 | 1.17 | – | CC(C)C[C@H](NC(=O)[C@H]1O[C@@H]1C(=O)O)C(=O)NCCCCN=C(N)N [E-64] | 4450 |
| – | – | – | < 5 | COc1cc(C(=O)O[C@@H]2O[C@H](CO)[C@@H](O)[C@H](OC(=O)c3cc(OC)c(OC)c(OC)c3)[C@H]2OC(=O)c2cc(OC)c(OC)c(OC)c2)cc(OC)c1OC | > 10000 |
| > 50000 | > 50000 | > 50000 | – | O=C(OC[C@H]1O[C@@H](OC(=O)c2cc(O)c(O)c(O)c2)[C@H](OC(=O)c2cc(O)c(O)c(O)c2)[C@@H](OC(=O)c2cc(O)c(O)c(O)c2)[C@@H]1O)c1cc(O)c(O)c(O)c1 | – |
| – | – | – | < 5 | O=C(N[C@H]1[C@@H](OC(=O)c2cc(O)c(O)c(O)c2)O[C@H](COC(=O)c2cc(O)c(O)c(O)c2)[C@@H](O)[C@@H]1OC(=O)c1cc(O)c(O)c(O)c1)c1cc(O)c(O)c(O)c1 | > 10000 |
| 7230 | > 50000 | > 50000 | – | O=C(OC[C@H]1O[C@@H](OC(=O)c2cc(O)c(O)c(O)c2)[C@H](OC(=O)c2cc(O)c(O)c(O)c2)[C@@H](OC(=O)c2cc(O)c(O)c(O)c2)[C@@H]1F)c1cc(O)c(O)c(O)c1 | – |
